Source: ChEMBL document CHEMBL1201862, “PubChem BioAssay data set” (2004)
Activity calls are given as the source filed them.

Tests used:
[1] = target: G2/mitotic-specific cyclin-B1 (Homo sapiens, UniProt P14635); experiment: Counterscreen assay for inhibitors of Wee1 degradation: dose response cell-based assay to identify inhibitors of cyclin B degradation. [Related pubchem assays: 1410, 1321 ]; type: functional
[2] = target: T1, Serine/threonine-protein phosphatase (Candida dubliniensis (strain CD36 / CBS 7987 / NCPF 3949 / NRRLY-17841) (Yeast), UniProt B9W6M3); experiment: blockers of CaCl2-induced CDRE-lacZ signaling – S. cerevisiae, luminescence, secondary, dose response (AID 2388); type: functional, cell-based;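 note: yeast reporter cells carrying a calcineurin-responsive lacZ construct stimulated with calcium chloride; luminescent beta-galactosidase reporter signal in whole cells rather than isolated phosphatase activity; potency for inhibition where a drop in reporter signal means calcineurin blockade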
T1 sequence (B9W6M3 whole entry): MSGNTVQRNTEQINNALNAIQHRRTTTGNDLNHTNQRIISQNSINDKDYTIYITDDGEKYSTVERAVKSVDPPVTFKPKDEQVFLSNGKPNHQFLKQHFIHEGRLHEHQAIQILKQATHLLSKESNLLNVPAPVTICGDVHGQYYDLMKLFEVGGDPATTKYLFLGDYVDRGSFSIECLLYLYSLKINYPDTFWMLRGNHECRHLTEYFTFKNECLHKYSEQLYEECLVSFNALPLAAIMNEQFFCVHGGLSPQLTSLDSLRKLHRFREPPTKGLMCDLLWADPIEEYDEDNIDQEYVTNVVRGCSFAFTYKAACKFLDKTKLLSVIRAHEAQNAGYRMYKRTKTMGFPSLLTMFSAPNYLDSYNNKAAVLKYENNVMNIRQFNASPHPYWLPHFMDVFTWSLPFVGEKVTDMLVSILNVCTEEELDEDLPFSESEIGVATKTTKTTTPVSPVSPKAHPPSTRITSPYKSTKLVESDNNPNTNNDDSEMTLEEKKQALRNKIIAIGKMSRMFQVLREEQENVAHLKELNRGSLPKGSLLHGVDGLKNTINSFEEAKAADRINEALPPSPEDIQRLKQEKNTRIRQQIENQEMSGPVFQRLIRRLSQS

[3] = DRD fibroblast viability loss – cell-based, non-viral oncogenic, luminescence, dose response (AID 1934); type: functional; conditions: Homo sapiens
[4] = Counterscreen for AddAB inhibitors: absorbance-based bacterial cell-based high throughput dose response assay for inhibitors of bacterial viability. [Related pubchem assays (depositor defined):AID435030, AID449728, AID449731, AID488942, AID488955, AID488956]; type: functional
Vero = experiment: cells; type: functional; conditions: Chlorocebus sabaeus
[5] = loss of viability in HepG2 cells – cell-based, CellTiter-Glo, cherry-picked, cytotoxicity control for Shn3 inhibitor project, dose response (AID 624134); type: functional
Aminopeptidase N = target: T2, Aminopeptidase N (Plasmodium falciparum FcB1/Columbia, UniProt O96935); experiment: malaria alanyl aminopeptidase activity blockers – biochemical, fluorogenic H-Leu-NHMec substrate, 1536-well (AID 1445); parameters: species or system Plasmodium falciparum 3D7, 3D7
T2 sequence (O96935 whole entry): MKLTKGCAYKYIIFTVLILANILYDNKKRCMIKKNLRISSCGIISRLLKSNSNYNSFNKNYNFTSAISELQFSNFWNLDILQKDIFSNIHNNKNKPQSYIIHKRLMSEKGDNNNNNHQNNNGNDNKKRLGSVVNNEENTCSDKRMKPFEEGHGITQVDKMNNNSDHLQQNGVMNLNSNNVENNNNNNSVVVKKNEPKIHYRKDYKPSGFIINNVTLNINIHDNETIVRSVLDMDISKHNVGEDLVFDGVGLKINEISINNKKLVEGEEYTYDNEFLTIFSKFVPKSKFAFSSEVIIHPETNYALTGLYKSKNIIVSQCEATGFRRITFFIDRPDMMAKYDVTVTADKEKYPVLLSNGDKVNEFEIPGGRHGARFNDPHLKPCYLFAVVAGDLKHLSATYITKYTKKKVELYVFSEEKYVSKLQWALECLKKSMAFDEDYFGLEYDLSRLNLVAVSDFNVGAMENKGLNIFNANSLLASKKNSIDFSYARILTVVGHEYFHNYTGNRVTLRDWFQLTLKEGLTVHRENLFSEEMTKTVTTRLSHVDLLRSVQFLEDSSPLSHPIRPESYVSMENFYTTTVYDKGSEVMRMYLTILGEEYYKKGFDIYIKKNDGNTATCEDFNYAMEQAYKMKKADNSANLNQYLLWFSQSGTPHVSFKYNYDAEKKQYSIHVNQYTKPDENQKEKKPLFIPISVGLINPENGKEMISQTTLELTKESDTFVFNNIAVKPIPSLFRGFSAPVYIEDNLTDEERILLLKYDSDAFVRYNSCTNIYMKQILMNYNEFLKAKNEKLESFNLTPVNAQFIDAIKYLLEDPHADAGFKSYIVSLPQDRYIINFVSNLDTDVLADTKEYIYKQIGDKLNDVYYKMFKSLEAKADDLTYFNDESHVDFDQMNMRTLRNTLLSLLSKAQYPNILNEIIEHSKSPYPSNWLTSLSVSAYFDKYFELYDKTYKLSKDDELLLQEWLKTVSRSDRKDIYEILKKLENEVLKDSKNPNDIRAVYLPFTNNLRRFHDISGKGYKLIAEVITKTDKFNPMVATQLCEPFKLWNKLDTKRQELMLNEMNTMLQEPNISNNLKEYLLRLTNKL

HEK293 = experiment: Fluorescence-based counterscreen for potentiators or agonists of NPY-Y2: cell-based high-throughput dose response assay to identify inhibitors of cyclic nucleotide gated ion channel (CNGC) activity. In this assay, the parental HEK293 cell line transfected with a cyclic-nucleotide gated ion channel (CNGC)-based cAMP sensor is used to measure inhibition of isoproterenol-induced CNGC activity by test compound.; type: functional; conditions: Homo sapiens;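 note: stimulus is 1 µM isoproterenol at EC100 plus PDE inhibitor Ro 20-1724 at 25 µM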
[6] = target: T3, Neuropeptide Y receptor type 1 (Homo sapiens, UniProt P25929); experiment: Fluorescence-based counterscreen for agonists of NPY-Y2: cell-based high-throughput dose response assay for agonists of NPY-Y1.; type: functional
T3 sequence (P25929 whole entry): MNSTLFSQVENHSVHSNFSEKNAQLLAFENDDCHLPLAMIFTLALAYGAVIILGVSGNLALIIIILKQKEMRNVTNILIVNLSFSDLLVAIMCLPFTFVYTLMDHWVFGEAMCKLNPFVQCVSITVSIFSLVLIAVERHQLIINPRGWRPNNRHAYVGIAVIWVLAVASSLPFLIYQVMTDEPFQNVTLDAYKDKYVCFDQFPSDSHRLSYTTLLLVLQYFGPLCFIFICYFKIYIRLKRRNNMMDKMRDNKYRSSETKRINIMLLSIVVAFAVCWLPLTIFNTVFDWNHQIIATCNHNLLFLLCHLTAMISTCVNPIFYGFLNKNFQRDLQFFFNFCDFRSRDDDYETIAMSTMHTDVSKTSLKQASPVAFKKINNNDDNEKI

Large T antigen = Large T antigen (Simian virus 40, UniProt P03070); experiment: A confirmatory biochemical assay using the ADP-Hunter methodology, purified TAg, and ATP to quantify activity of synthesized compounds that inhibit the ATPase activity of Tag (3). [Related pubchem assays (depositor defined):AID1903, AID1909, AID2102, AID2501, AID2615, AID2775, AID435001, AID449729]; parameters: species or system Betapolyomavirus macacae
[7] = target: Small ubiquitin-related modifier 2 (Homo sapiens, UniProt P61956); experiment: disruption of SUMO2 interaction with SIM peptide – biochemical, fluorescence polarization, uHTS hits, selectivity assay for SUMO1 interaction inhibitor project, dose response (AID 624385); type: functional; conditions: read-out: IC50_Mean
[8] = target: Small ubiquitin-related modifier 1 (Homo sapiens, UniProt P63165); experiment: SUMO1 protein-protein binding blockers, potency – biochemical, FRET, dose response (AID 624383); type: functional; conditions: read-out: IC50_Mean
Sequence of Small ubiquitin-related modifier 1 (P63165 whole entry): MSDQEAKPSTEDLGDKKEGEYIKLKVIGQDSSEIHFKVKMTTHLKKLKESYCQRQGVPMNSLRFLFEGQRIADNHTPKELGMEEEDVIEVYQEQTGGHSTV

Sequence of G2/mitotic-specific cyclin-B1 (P14635 whole entry): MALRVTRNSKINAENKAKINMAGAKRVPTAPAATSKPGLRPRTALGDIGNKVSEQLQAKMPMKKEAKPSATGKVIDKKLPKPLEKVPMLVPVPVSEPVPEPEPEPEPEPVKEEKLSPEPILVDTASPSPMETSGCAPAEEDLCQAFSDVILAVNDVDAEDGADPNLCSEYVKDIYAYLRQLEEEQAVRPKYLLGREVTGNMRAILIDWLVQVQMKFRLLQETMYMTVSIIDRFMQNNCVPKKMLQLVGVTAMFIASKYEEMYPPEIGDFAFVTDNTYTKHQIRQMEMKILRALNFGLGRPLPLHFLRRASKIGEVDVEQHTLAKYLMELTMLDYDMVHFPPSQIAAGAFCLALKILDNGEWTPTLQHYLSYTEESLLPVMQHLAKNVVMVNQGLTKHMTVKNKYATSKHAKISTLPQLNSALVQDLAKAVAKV
Sequence of Large T antigen (P03070 whole entry): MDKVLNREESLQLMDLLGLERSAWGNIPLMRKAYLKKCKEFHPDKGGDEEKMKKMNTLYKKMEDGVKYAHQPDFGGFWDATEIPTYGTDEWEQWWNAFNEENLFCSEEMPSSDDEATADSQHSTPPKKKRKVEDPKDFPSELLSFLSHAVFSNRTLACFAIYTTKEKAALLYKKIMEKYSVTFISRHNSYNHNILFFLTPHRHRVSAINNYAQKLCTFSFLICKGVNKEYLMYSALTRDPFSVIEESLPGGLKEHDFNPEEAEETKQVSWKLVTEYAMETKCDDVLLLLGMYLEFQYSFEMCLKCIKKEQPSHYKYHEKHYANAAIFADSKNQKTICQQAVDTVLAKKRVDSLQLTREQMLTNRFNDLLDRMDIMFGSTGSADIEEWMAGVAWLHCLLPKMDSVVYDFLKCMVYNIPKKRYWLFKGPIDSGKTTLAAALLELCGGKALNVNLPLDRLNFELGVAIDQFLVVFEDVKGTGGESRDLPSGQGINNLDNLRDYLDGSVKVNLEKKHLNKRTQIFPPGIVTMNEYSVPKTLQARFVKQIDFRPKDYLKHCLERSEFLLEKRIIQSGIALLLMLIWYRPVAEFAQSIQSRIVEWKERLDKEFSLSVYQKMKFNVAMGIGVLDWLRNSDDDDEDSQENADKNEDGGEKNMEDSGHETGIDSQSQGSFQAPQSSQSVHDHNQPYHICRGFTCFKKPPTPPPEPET
Sequence of Small ubiquitin-related modifier 2 (P61956 whole entry): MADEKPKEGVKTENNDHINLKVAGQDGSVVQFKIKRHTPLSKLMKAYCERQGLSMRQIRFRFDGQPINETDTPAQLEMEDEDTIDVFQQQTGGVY

Which EC50 [1] does the source give for O=[N+]([O-])c1ccc(Sc2cccc[n+]2[O-])c2nonc12 here?
Its EC50 is > 49.7 µM (not active).

Which EC50 [2] does the source give for CCCC(=O)NC(c1ccc(C(C)C)cc1)c1ccc2cccnc2c1O (configuration not stated) here?
The EC50 was > 180 µM (inactive).

What about the EC50 [3] of the same compound?
Its EC50 is 2.35 µM (active).

And the IC50 [4]?
Its IC50 is > 119 µM (inactive).

And the CC50 (Vero)?
Its CC50 is 2.88 µM (active).

And the AC50 [5]?
Its AC50 is 1.91 µM (active).

With Oc1c(Cl)cc(Cl)c(Cl)c1Cc1c(O)c(Cl)cc(Cl)c1Cl [HEXACHLOROPHENE] as the compound, how does the IC50 (Aminopeptidase N) read?
The IC50 was 58 µM (active).

What about the EC50 (HEK293) of the same compound?
The EC50 was > 11.8 µM (not active).

What about the EC50 [6] of the same compound?
The EC50 was 9.8 µM (active).

And the IC50 (Large T antigen)?
The IC50 was 34.5 µM (active).

And the IC50 [7]?
Its IC50 is 8.49 µM (active).

And the IC50 [8]?
Its IC50 is 38.9 µM (inactive).
